Results reported in PMC3939009, “Thrombin inhibitory activity of some polyphenolic compounds” (Medicinal Chemistry Research, 2013).

Target: human thrombin (Homo sapiens, UniProt P00734)
Assay: SDS-PAGE analysis of thrombin-induced cross-linked fibrin formation
Format: biochemical
Set-up: Thrombin, also known as an active plasma coagulation factor II; purchased Sigma-Aldrich Chemical Co. (St. Louis, MO, USA) T7009; host or cells: purified from human plasma
Experimental: In these preparations, to nine volumes of thrombin one volume of polyphenolic compounds was added (final thrombin concentration was 15.8 nM). All tested compounds were dissolved in 50 % DMSO to the initial concentration of 10 mM; other solutions of compounds were also prepared in 50 % DMSO (prepared in 50 mM TBS, pH 7.4). The final concentration of DMSO in thrombin samples was 5 %. To prepare thrombin control samples, the same volume of solvent (50 % DMSO prepared in 50 mM TBS, pH 7.4) was added as in the case of the compound volume and warmed for 10 min to 37 °C.
The reactions incubated at 37 °C were stopped after 5, 15 and 30 min by adding 150 μl of lysis buffer (0.125 M Tris/HCl, 4 % SDS, 8 M urea, 10 % β-mercaptoethanol, pH 6.8). Samples were subjected to SDS-PAGE (polyacrylamide concentration—7.5 %) using Mini-Protean Electrophoresis Cell (Bio-Rad, Hercules, CA). Proteins were stained with Coomassie Brilliant Blue R250 (CBB).

SMILES: O=c1c(O)c(-c2ccc(O)c(O)c2)oc2cc(O)cc(O)c12 [Quercetin, quercetin]
- Effect on formation of γ–γ chains and α-polymers (at IC50 concentration of amidolytic inhibition: cyanidin […], quercetin 1.5 μM): also inhibited the formation of γ–γ chains and α-polymers
- Effect on formation of γ–γ chains and α-polymers (ten times IC50: cyanidin […], quercetin 15 μM, silybin 250 μM): significantly inhibited the formation of γ–γ chains and α-polymers
